This test deals with Protein Tat (Human immunodeficiency virus type 1 group M subtype B (isolate HXB2)) (UniProt P04608). As to the kind of experiment: inhibitors of Tat binding to TAR RNA, dose response, counter-screen for Vif-APOBEC3G degradation inhibitor project, biochemical, fluorescence polarization, FAM-labeled TAR RNA (AID 1117361). Background: Counterscreens check selectivity or assay interference.
Sequence of Protein Tat (Human immunodeficiency virus type 1 group M subtype B (isolate HXB2)) (P04608 whole entry, looked up): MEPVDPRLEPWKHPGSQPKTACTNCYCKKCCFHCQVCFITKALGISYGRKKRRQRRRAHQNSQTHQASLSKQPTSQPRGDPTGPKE
As usually defined, the IC50 is the concentration that inhibits the measured activity by half. With `Cc1ccc(SCCN2C(=O)NC(C)(C)C2=O)cc1`, the IC50 is 24.8 µM.

As to `O=C(N/N=C/C=C/c1ccco1)c1ccncc1`, the IC50 is 10.2 µM.

In the case of `COc1cc(-c2cccs2)cc(=O)c2c(C)oc(C)c12`, the IC50 was 22.7 µM.

For the molecule `CC(C)c1ccc(/C=C/C(=O)N2CCc3ccccc3C2)cc1`, the half-inhibitory concentration (IC50) is 33.7 µM.

Take `O=C(O)c1ccc(COc2c(F)c(F)c(F)c(F)c2F)o1`: the half-maximal inhibitory concentration (IC50) was 90.6 µM.

In the case of `O=C1C2C3C=CC(C3)C2C(=O)N1CNc1ccc(O)cc1` (centres undefined), the IC50 is 25.7 µM.

Consider `Cc1ccc(NC(=O)COc2ccc(/C=N/NC(=O)CSCc3ccccc3)cc2)cc1`, for which the IC50 is 16.3 µM.

For `O=C1CCCC(O)=C1N=Nc1cccc(C(=O)O)c1`, the IC50 was 13.7 µM.

Turning to `CCOC(=O)c1cnn2c(N)c(C#N)nnc12`, the IC50 is 45.7 µM.

For `Cc1ccc(/C=C2\SC(=S)N(c3cccnc3)C2=O)o1`, the half-inhibitory concentration (IC50) was 5.44 µM.

With `COc1ccc(CCNC(=O)c2ccc3nc(-c4ccco4)c(-c4ccco4)nc3c2)cc1OC`, the IC50 was 4.32 µM.

`CNCc1ccccc1Sc1cc(O)ccc1O`: the IC50 is 17.5 µM.

For `CC(=C/C(=O)O)/C=C/c1ccc(Cl)o1`, the 50% inhibitory concentration (IC50) was 92 µM.

Regarding `S=c1[nH]nc(-c2cccnc2)n1/N=C/C=C/c1ccco1`, the IC50 was 5.3 µM.

In the case of `CCN(CC)C(=O)c1ccc2c(c1)C1C(Cl)C(Sc3ccccc3[N+](=O)[O-])CC1C(C(=O)O)N2` (centres undefined), the IC50 was 5.54 µM.

Turning to `Cc1c(C(=O)O)cccc1-n1c(C)cc(/C=N/Nc2ccc([N+](=O)[O-])cn2)c1C`, the IC50 is 64 µM.

As for `O=c1cc2c(=O)oc3cc(O)c(O)oc3c2c(O)c1O`, the IC50 was 12.3 µM.

Regarding `Cc1cccc(NC2=Nc3ccccc3N3C2=Nc2c(c(C)nn2-c2ccccc2)C3c2ccc(O)c(O)c2)c1` (centres undefined), the IC50 is 43 µM.

For the molecule `O=C(O)c1ccc(Cl)c2c1C1C=CCC1C(c1ccccn1)N2` (centres undefined), the concentration for half-maximal inhibition (IC50) is 2.81 µM.

`CC1CCN(Cc2c(O)ccc3c2O/C(=C\c2ccco2)C3=O)CC1`: the IC50 is 4.79 µM.

Consider `O=C(CCN1CCN(c2ccccc2)CC1)N/N=C/c1ccc(O)c(O)c1O`, for which the half-inhibitory concentration (IC50) was 4.87 µM.

As to `c1ccc2c(c1)CCCN2Cc1nnc2n1CCCCC2`, the concentration for half-maximal inhibition (IC50) was 4.29 µM.

On to `CC[C@H](C)/C=C(C)/C=C/C1=CC2=CC(=O)[C@]3(C)OC(=O)[C@@H](C(C)=O)[C@@H]3C2=CO1`, for which the IC50 is 14.4 µM.

With `O=[N+]([O-])c1cc2oc3c(c2c(C=NCc2ccncc2)c1O)CCCC3`, the 50% inhibitory concentration (IC50) was 13.4 µM.

For the molecule `N=C1S/C(=C\c2ccco2)C(=O)N1c1ccc2c(c1)OCO2`, the IC50 was 18.4 µM.

With `CC1=CC(C)(C)Nc2ccc(OC(=O)CN3C(=O)c4cccc5cccc(c45)C3=O)cc21`, the IC50 was 15.3 µM.

`O=C(N/N=C/C=C\c1ccco1)c1cccnc1`: the 50% inhibitory concentration (IC50) is 3.91 µM.

As for `CC(=O)c1sc(C(=O)O)c(-c2ccco2)c1-c1ccco1`, the half-inhibitory concentration (IC50) was 4.86 µM.

Regarding `COC(=O)\C(C(C)=O)=C(/C=C/C=C/C=C/N(C)C)N(C)C`, the IC50 is 56.3 µM.

Turning to `COc1cccc(CNC(=O)CCNS(=O)(=O)c2cccs2)c1`, the IC50 was 9.05 µM.

On to `O=C(Nc1cccc(C(F)(F)F)c1)c1ccc2nc(-c3ccco3)c(-c3ccco3)nc2c1`, for which the IC50 is 6.07 µM.

On to `O=C(/C(=N/N=C/c1ccc(O)c(O)c1O)c1ccccc1)c1ccccc1`, for which the half-inhibitory concentration (IC50) is 35.2 µM.

Consider `O=S(=O)(O)c1cc(O)c(N=Nc2ccc(O)cc2O)c2ccccc12`, for which the IC50 is 51.3 µM.

For the molecule `CCOC(=O)C(=O)Cc1cccnn1`, the concentration for half-maximal inhibition (IC50) is 49.5 µM.

Regarding `CCN1C[C@@H]2[C@@H]3C(=O)N(Cc4ccccc4)C(=O)[C@@H]3[C@](C)(C(=O)OC)N2C1=NC1CCCCC1`, the concentration for half-maximal inhibition (IC50) is 79.8 µM.

Consider `O=C1NC(=S)N(c2ccccc2)C(=O)/C1=C/c1ccco1`, for which the IC50 was 16.2 µM.

As to `CCn1cc(Br)c(C(=O)Nc2cccc(SC)c2)n1`, the half-inhibitory concentration (IC50) is 1.44 µM.

Regarding `Clc1ccc(OCc2nn3c(-c4ccco4)nnc3s2)c(Cl)c1`, the 50% inhibitory concentration (IC50) was 51.5 µM.

As for `COC(=O)C1=C(N)OC2=C(C(=O)CCC2)C1c1cccs1` (centres undefined), the half-maximal inhibitory concentration (IC50) was 52.2 µM.

For `O=C(O)Cc1cccc(=O)c(O)c1C(=O)O`, the half-inhibitory concentration (IC50) is 54.7 µM.

For `CCCCC(=O)NC(=S)Nc1cc(C(=O)O)ccc1Cl`, the IC50 was 51.2 µM.

With `Cc1cccc(N2C(=O)NC(=O)/C(=C/c3cc4c(cc3[N+](=O)[O-])OCO4)C2=O)c1`, the IC50 is 0.906 µM.

On to `COc1cc(/C=C/C=C2/CC/C(=C/C=C/c3ccc(O)c(OC)c3)C2=O)ccc1O`, for which the IC50 is 44.8 µM.

With `COc1ccc(NC(=O)CN(C)C(=O)c2cc(-c3ccco3)nc3ccccc23)cc1`, the IC50 is 46.4 µM.

For `Cc1cc(C)cc(Nc2ccc(C(=O)O)cc2N)c1`, the IC50 was 47.1 µM.

Consider `COc1ccc(C2=NCC(=O)N(CC(=O)NCc3ccco3)c3sc4c(c32)CCCC4)cc1OC`, for which the half-inhibitory concentration (IC50) is 82.3 µM.

In the case of `c1cn2cc(CSC3CCCCC3)nc2s1`, the IC50 was 63.8 µM.

For `O=S(=O)(c1ccc2nc(-c3ccco3)c(-c3ccco3)nc2c1)N1CCOCC1`, the IC50 was 44.9 µM.

As for `CN1CCc2cccc3c2[C@@H]1Cc1ccc(O)c(O)c1-3`, the IC50 was 9.08 µM.

`C=CCSC1=N/C(=C\C=C\c2ccco2)C(=O)S1`: the 50% inhibitory concentration (IC50) was 1.89 µM.

In the case of `C=CC(=O)N1C/C(=C/c2ccc(F)cc2)C(=O)/C(=C\c2ccc(F)cc2)C1`, the 50% inhibitory concentration (IC50) was 89.5 µM.

Turning to `CN1C(=O)/C(=C/c2cccn2-c2ccc3ccccc3c2)C(=O)NC1=S`, the IC50 was 44.5 µM.

On to `CC(C)OC(=O)c1cccc(C(=O)O)n1`, for which the 50% inhibitory concentration (IC50) is 1.92 µM.

For the molecule `Cc1cccc(C)c1NC(=O)CSc1nnc(-c2ccco2)c(-c2ccco2)n1`, the IC50 was 6.43 µM.

Regarding `Cc1ccc(C)n1/N=C1/NC(=O)CS1`, the IC50 is 0.882 µM.

In the case of `CCN(CC)C(=O)c1ccc(CS(=O)(=O)c2ccc(OC)cc2)o1`, the IC50 is 2.35 µM.

On to `CC(=O)Nc1ccc(C=C(C#N)c2ccc(C)cc2)cc1`, for which the concentration for half-maximal inhibition (IC50) is 24.7 µM.

As to `O/N=C1\CCC\C1=C/c1ccco1`, the IC50 is 27.2 µM.

As for `COC(=O)C1C(O)C(C)C(O)C(C)(O)/C=C\C=C(/C)C(=O)Nc2c(C)c(OC(C)=O)c3c(c2O)C(=O)C(C)=C2OCOC(=C23)/C(C)=C/C(C)(O)C(O)C(C)C1O` (centres undefined), the half-inhibitory concentration (IC50) is 54.6 µM.

Take `COc1ccc2c3c(cccc13)N(C)N=C2C`: the IC50 is 11.1 µM.

`CC(=O)c1ccc(NC(=O)c2ccc3nc(-c4ccco4)c(-c4ccco4)nc3c2)cc1`: the IC50 was 7.73 µM.

With `CCCCn1c(O)c(C(CC)=NCCN2CCCCC2)c(=O)[nH]c1=O`, the IC50 is 32.5 µM.

Take `Cc1cccc(NC(=S)NC(=O)/C=C/c2ccco2)c1`: the half-maximal inhibitory concentration (IC50) is 20.2 µM.

Consider `Cc1ccc(C)n1-c1cccc(C(=O)O)c1`, for which the concentration for half-maximal inhibition (IC50) is 2.07 µM.

As to `CCN(CC)Cc1cc(O)c(CN(CC)CC)cc1O`, the IC50 was 4.37 µM.

For the molecule `O=C(Nc1nc(-c2ccco2)c(-c2ccco2)s1)C1CCC1`, the 50% inhibitory concentration (IC50) was 2.65 µM.

In the case of `COc1ccc(NC(=O)CC2Nc3cccc4cccc(c34)NC2=O)cc1` (centres undefined), the half-inhibitory concentration (IC50) was 7.03 µM.

With `O=c1cc(-c2ccccc2Cl)c2c([nH]1)CCC2`, the IC50 is 18.8 µM.

With `S=c1[nH]nc(C2CC2)n1Cc1ccco1`, the concentration for half-maximal inhibition (IC50) was 45.9 µM.

Consider `CCN(CC)c1ccc(NC2CC(=O)N(CCc3ccc(OC)cc3)C2=O)cc1` (centres undefined), for which the half-maximal inhibitory concentration (IC50) is 27.3 µM.

As for `Cc1ccc(C2C(C#N)=C(N)Oc3c2oc(CO)cc3=O)o1` (centres undefined), the IC50 was 5.77 µM.

In the case of `O=C1NN(c2ccc(Cl)cc2)C(=O)/C1=C\c1ccc(-c2cccc(C(=O)O)c2)o1`, the half-inhibitory concentration (IC50) was 23.4 µM.

For the molecule `Cc1ccn2cc(-c3nonc3C)cc2c1`, the IC50 was 21.4 µM.

Consider `COCc1cc(C)nc(NCCO)c1C#N`, for which the half-inhibitory concentration (IC50) was 1.44 µM.

For the molecule `CCNc1ccc(Br)cc(C(=O)/C=C/c2ccc(Cl)cc2)c1=O`, the half-maximal inhibitory concentration (IC50) is 12.5 µM.

On to `CN(C)[C@@H]1C(=O)C(C(=O)NCN2CCCC2)=C(O)[C@@]2(O)C(=O)C3=C(O)c4c(O)cccc4[C@@](C)(O)C3CC12` (some centres undefined), for which the IC50 was 2.46 µM.

Turning to `O=C(Nc1ccccc1F)c1coc(=O)c(Br)c1`, the half-maximal inhibitory concentration (IC50) was 15 µM.

As for `COc1ccc2c(c1)C(=O)c1ccccc1CO2`, the half-maximal inhibitory concentration (IC50) is 46.3 µM.

Turning to `O=C(NN1C(=O)/C(=C/C=C/c2ccco2)SC1=S)c1ccccc1O`, the IC50 was 4.46 µM.

For the molecule `CCOc1cccc(CNCCNC(=O)c2nonc2N)c1`, the half-inhibitory concentration (IC50) was 84.2 µM.

Take `CCOC(=O)C1=C(c2ccccc2)N=c2s/c(=C\c3ccco3)c(=O)n2C1c1cccs1` (centres undefined): the half-maximal inhibitory concentration (IC50) was 32.8 µM.

As for `COc1cc(OC)c2c(O)c3c(c(-c4c5c(c(O)c6c(OC)cc(OC)cc46)CO[C@@H](C)[C@H]5O)c2c1)[C@H](O)[C@H](C)OC3`, the 50% inhibitory concentration (IC50) was 30.8 µM.

For `NC(=S)N=Nc1c(O)cc(O)c2[nH]c(=O)ccc12`, the half-maximal inhibitory concentration (IC50) was 37.2 µM.

Take `CC1=NN(C(N)=S)C(=O)C1N=Nc1cccc([N+](=O)[O-])c1` (centres undefined): the half-inhibitory concentration (IC50) was 99.2 µM.

Take `CCCOc1ccc(Cc2nn3c(=O)/c(=C/c4ccco4)sc3nc2=O)cc1`: the 50% inhibitory concentration (IC50) was 2.68 µM.

For the molecule `O=[N+]([O-])c1cc(-c2ccc(/C=N/c3nc4ccccn4c3-c3ccco3)o2)ccc1Cl`, the half-maximal inhibitory concentration (IC50) was 28.7 µM.

For the molecule `CC1(c2ccc3noc(-c4ccccc4)c3c2)OCCO1`, the IC50 is 2.87 µM.

For the molecule `NC(CO)C(=O)NNCc1ccc(O)c(O)c1O` (centres undefined), the IC50 was 8.84 µM.

`CCn1cc(CNC(=O)c2ccc(Cl)c([N+](=O)[O-])c2)c(C)n1`: the 50% inhibitory concentration (IC50) is 43 µM.

Regarding `O=C(O)c1cccc2c1NC(C(=O)O)C1CC(Sc3ccccc3[N+](=O)[O-])C(Cl)C21` (centres undefined), the IC50 is 1.91 µM.

Consider `O=C1NC(=O)N(Cc2ccccc2)C(=O)/C1=C\C=C\c1ccco1`, for which the IC50 was 30.9 µM.

Take `CC1=C(C(=O)Nc2ccccc2)C(c2ccc(C)o2)n2c(s/c(=C\c3ccco3)c2=O)=N1` (centres undefined): the concentration for half-maximal inhibition (IC50) was 5.9 µM.

In the case of `Cc1ccc(N(CC(=O)NCCSCc2ccco2)S(=O)(=O)c2ccc(F)cc2)cc1`, the IC50 was 63.7 µM.

As to `CCc1ccccc1NC(=O)c1cccc(NC(=O)/C=C/c2ccco2)c1`, the IC50 was 26.6 µM.

Take `CCCSC1=N/C(=C\c2ccc([N+](=O)[O-])o2)C(=O)S1`: the IC50 is 7.37 µM.

Turning to `Cc1cc(O)ccc1-c1cnc2ccccc2n1`, the IC50 was 80.8 µM.

As for `O=S(=O)(O)c1cc(O)c2ccc(Nc3ccccc3)cc2c1`, the IC50 is 12.5 µM.

Turning to `O=S(=O)(O)c1cc(O)c2c(O)c(N=Nc3cc(Cl)ccc3O)c(S(=O)(=O)O)cc2c1`, the half-inhibitory concentration (IC50) was 15.9 µM.

As to `COc1ccc(NC(=O)c2cc(-c3ccco3)nc3ccccc23)cc1S(=O)(=O)N1CCOCC1`, the IC50 is 19.3 µM.

For the origin of these results see PubChem BioAssay AID1117361 (Southern Research Institute, 2015).
